Assays:
Danio rerio embryo [1] = experiment: EC20 Eye size_Decrease; higher = less potent; conditions: exposure time: 2 dpf
Experimental: (§1)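 Zebrafish embryos (UFZ-OBI strain) were exposed from 2 hpf for 48 h (2 dpf) or 96 h (4 dpf) at 28 °C; spontaneous tail coiling was scored at 25 hpf. Morphological features from automated image analysis (FishInspector), heart rate and locomotor response were fitted with drc models. Quantal endpoints were dichotomised at 2.5 SD from controls and fitted with a log-logistic model; heart rate, pigmentation and STC were normalised to the replicate control mean. Betamethasone was tested as betamethasone dipropionate, diflorasone as diflorasone diacetate.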

Danio rerio embryo [2] = experiment: EC20 Any effect; higher = less potent
Experimental: as §1

Danio rerio embryo [3] = experiment: EC20 Bladder size_Decrease; higher = less potent; conditions: exposure time: 4 dpf
Experimental: as §1

Danio rerio embryo [4] = experiment: EC10 Bladder size_Decrease; higher = less potent; conditions: exposure time: 4 dpf
Experimental: as §1

Danio rerio embryo [5] = experiment: EC20 Pigmentation increase; higher = less potent; conditions: exposure time: 4 dpf
Experimental: as §1

Danio rerio embryo [6] = experiment: EC20 Heart rate; higher = less potent
Experimental: as §1

Danio rerio embryo [7] = experiment: spontaneous tail coiling frequency (coils/min/embryo); higher = more spontaneous movement; conditions: 25 hpf
Experimental: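 Spontaneous tail coilings of zebrafish embryos exposed from 2 hpf were recorded at 24-25 hpf in 1-min videos and detected by a KNIME workflow from grey-value variance. Betamethasone was tested as the dipropionate, diflorasone as the diacetate.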

Danio rerio embryo [8] = experiment: EC10 Curvature_Increase; higher = less potent; conditions: exposure time: 2 dpf
Experimental: as §1

Danio rerio embryo [9] = experiment: EC20 LMR dark; higher = less potent; conditions: exposure time: 4 dpf
Experimental: as §1

Danio rerio embryo [10] = experiment: EC20 Pericard size_Increase; higher = less potent; conditions: exposure time: 2 dpf
Experimental: as §1

Danio rerio embryo [11] = experiment: EC20 Eye-jaw distance_Decrease; higher = less potent; conditions: exposure time: 4 dpf
Experimental: as §1

Danio rerio embryo [12] = experiment: EC10 Heart rate; higher = less potent
Experimental: as §1

Danio rerio embryo [13] = experiment: EC10 Pigmentation increase; higher = less potent; conditions: exposure time: 4 dpf
Experimental: as §1

Danio rerio embryo [14] = experiment: EC50 Curvature_Increase; conditions: exposure time: 2 dpf
Experimental: as §1

Danio rerio embryo [15] = conditions: exposure time: 4 dpf
Experimental: as §1

Danio rerio embryo [16] = experiment: EC50 Body length_Decrease
Experimental: as §1

CC1(C)OC(=O)C(OCC2CC2)=C1c1ccc(S(C)(=O)=O)cc1 [Firocoxib]
Conditions	EC10 Bladder size Decrease [µM]	EC10 Curvature Increase [µM]	EC10 Pigmentation increase [µM]	EC20 Bladder size Decrease [µM]	EC20 Eye size Decrease [µM]	EC20 Eye-jaw distance Decrease [µM]	EC20 LMR dark [µM]	EC20 Pericard size Increase [µM]	EC20 Pigmentation increase [µM]	EC50 Curvature Increase [µM]	EC50 Lack of SB [µM]
Danio rerio embryo [1]	–	–	–	–	93.3	–	–	–	–	–	–
Danio rerio embryo [3]	–	–	–	39	–	–	–	–	–	–	–
Danio rerio embryo [4]	31.5	–	–	–	–	–	–	–	–	–	–
Danio rerio embryo [5]	–	–	–	–	–	–	–	–	100	–	–
Danio rerio embryo [8]	–	74.2	–	–	–	–	–	–	–	–	–
Danio rerio embryo [9]	–	–	–	–	–	–	22.9	–	–	–	–
Danio rerio embryo [10]	–	–	–	–	–	–	–	58.3	–	–	–
Danio rerio embryo [11]	–	–	–	–	–	93.2	–	–	–	–	–
Danio rerio embryo [13]	–	–	83	–	–	–	–	–	–	–	–
Danio rerio embryo [14]	–	–	–	–	–	–	–	–	–	109	–
Danio rerio embryo [15]	–	–	–	–	–	–	–	–	–	–	64.6

Conditions	EC10 Heart rate [µM]	EC20 Any effect [µM]	EC20 Heart rate [µM]	EC50 Body length Decrease [µM]	spontaneous tail coiling frequency
Danio rerio embryo [2], exposure time: 2 dpf	–	73.7	–	–	–
Danio rerio embryo [2], exposure time: 4 dpf	–	85.4	–	–	–
Danio rerio embryo [6], exposure time: 2 dpf	–	–	113	–	–
Danio rerio embryo [6], exposure time: 4 dpf	–	–	38.8	–	–
Danio rerio embryo [7], 14.9 µM	–	–	–	–	2.83
Danio rerio embryo [7], 29.7 µM	–	–	–	–	2.54
Danio rerio embryo [7], 59.4 µM	–	–	–	–	3.5
Danio rerio embryo [7], 59.5 µM	–	–	–	–	2.46
Danio rerio embryo [7], 89.2 µM	–	–	–	–	2.31
Danio rerio embryo [7], 104 µM	–	–	–	–	3
Danio rerio embryo [7], 133.8 µM	–	–	–	–	3.06
Danio rerio embryo [12], exposure time: 2 dpf	86.2	–	–	–	–
Danio rerio embryo [12], exposure time: 4 dpf	31.2	–	–	–	–
Danio rerio embryo [16], exposure time: 2 dpf	–	–	–	109	–
Danio rerio embryo [16], exposure time: 4 dpf	–	–	–	113	–
